{
  "source": "patent EP2837626A1",
  "about": "“Indolinone derivatives as GRK5 modulators” (Max-Planck-Gesellschaft zur Förderung der Wissenschaften …, priority 2013, dated 2015)",
  "key": {"full length GRK5": {"target": "T1, full length GRK5 (Homo sapiens, UniProt P34947)", "T1 construct": "6/2 fold concentrated full length GRK5 (Millipore, #14-714) in reaction buffer is added to each well; purchased Millipore 14-714", "T1 sequence (P34947 whole entry)": "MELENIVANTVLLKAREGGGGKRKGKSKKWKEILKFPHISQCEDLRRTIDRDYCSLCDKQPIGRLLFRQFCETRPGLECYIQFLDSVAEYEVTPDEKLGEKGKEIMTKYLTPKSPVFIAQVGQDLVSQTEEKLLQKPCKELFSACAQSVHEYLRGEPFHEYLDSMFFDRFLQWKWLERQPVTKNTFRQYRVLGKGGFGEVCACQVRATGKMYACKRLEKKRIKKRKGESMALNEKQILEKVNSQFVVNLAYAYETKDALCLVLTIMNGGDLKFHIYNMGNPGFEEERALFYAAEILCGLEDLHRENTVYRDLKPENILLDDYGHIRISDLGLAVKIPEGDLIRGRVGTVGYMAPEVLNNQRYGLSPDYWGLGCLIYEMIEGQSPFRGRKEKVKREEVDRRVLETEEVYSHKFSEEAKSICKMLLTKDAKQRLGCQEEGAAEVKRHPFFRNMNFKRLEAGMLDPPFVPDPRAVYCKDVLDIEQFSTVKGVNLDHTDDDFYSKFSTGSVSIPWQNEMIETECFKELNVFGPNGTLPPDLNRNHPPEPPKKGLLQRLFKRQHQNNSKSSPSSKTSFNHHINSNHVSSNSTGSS", "assay": "IC50 determination of compounds inhibiting GRK5 by ADP Glo Kinase Assay technology (Promega)", "type": "biochemical", "conditions": "20 nM GRK5, 18.7 µM ATP, 10 µM casein, 12 concentrations, triplicates, read-out: GRK5 IC50"}, "GRK5": {"target": "T2, GRK5 (Homo sapiens, UniProt P34947)", "T2 construct": "purchased Millipore", "T2 sequence (P34947 whole entry)": "as above", "assay": "IC50 determination of compounds inhibiting GRK5 by Millipore KinaseProfiler (radiometric filtration binding assay)", "type": "biochemical", "conditions": "2 mg/mL casein, 40 minutes at room temperature", "experimental": "IC50 values are determined by a radiometric based filtration binding assay, namely Millipore KinaseProfiler™. GRK5 is incubated with 8 mM MOPS pH 7.0, 0.2 mM EDTA, 2 mg/mL casein, 10 mM MgAcetate and […] (specific activity approx. 500 cpm/pmol, concentration as required). The reaction is initiated by the addition of the MgATP mix. After incubation for 40 minutes at room temperature, the reaction is stopped by the addition of 3 % phosphoric acid solution. 10 µL of the reaction is then spotted onto a P30 filtermat and washed three times for 5 minutes in 75 mM phosphoric acid and once in methanol prior to drying and scintillation counting."}},
  "data": [
    {"smiles": "Cc1[nH]c(/C=C2\\C(=O)Nc3ccc(C(=O)O)cc32)c(C)c1C(=O)NCCN1CCCC1", "note": "[Compound 2]", "values": [
      {"measurement": "IC50", "setting": "full length GRK5", "value": "< 5", "unit": "µM"}
    ]},
    {"smiles": "CC[C@@H](NC(=O)c1ccc2c(c1)/C(=C/c1[nH]c(C)c(C(=O)NCCN3CCCC3)c1C)C(=O)N2)c1ccccc1", "note": "[Compound 6, (3Z)-3-({3,5-dimethyl-4-[(2-pyrrolidin-1-ylethyl)carbamoyl]-1H-pyrrol-2-yl}methylene)-2-oxo-N-[(1R)-1-phenylpropyl]indoline-5-carboxamide]", "values": [
      {"measurement": "IC50", "setting": "full length GRK5", "value": "< 5", "unit": "µM"}
    ]},
    {"smiles": "CC[C@@H](NC(=O)c1ccc2c(c1)/C(=C/c1[nH]c(C)c(C(=O)N3CCN(C)CC3)c1C)C(=O)N2)c1ccccc1", "note": "[Compound 7, (3Z)-3-({3,5-dimethyl-4-[(4-methylpiperazin-1-yl)carbonyl]-1H-pyrrol-2-yl}methylene)-2-oxo-N-[(1R)-1-phenylpropyl]indoline-5-carboxamide]", "values": [
      {"measurement": "IC50", "setting": "full length GRK5", "value": "5 to 20", "unit": "µM"}
    ]},
    {"smiles": "CCC(NC(=O)c1ccc2c(c1)/C(=C/c1[nH]c(C)c(C(=O)NCCN3CCCC3)c1C)C(=O)N2)c1ccc(F)c(F)c1", "note": "(stereo not shown) [Compound 10, (3Z)-N-[1-(3,4-difluorophenyl)propyl]-3-({3,5-dimethyl-4-[(2-pyrrolidin-1-ylethyl)carbamoyl]-1H-pyrrol-2-yl}methylene)-2-oxoindoline-5-carboxamide]", "values": [
      {"measurement": "IC50", "setting": "full length GRK5", "value": "< 5", "unit": "µM"}
    ]},
    {"smiles": "CCC(NC(=O)c1ccc2c(c1)/C(=C/c1[nH]c(C)c(C(=O)NCCN3CCCC3)c1C)C(=O)N2)c1cccc(Cl)c1", "note": "(stereo not shown) [Compound 11, (3Z)-N-[1-(3-chlorophenyl)propyl]-3-({3,5-dimethyl-4-[(2-pyrrolidin-1-ylethyl)carbamoyl]-1H-pyrrol-2-yl}methylene)-2-oxoindoline-5-carboxamide]", "values": [
      {"measurement": "IC50", "setting": "full length GRK5", "value": "< 5", "unit": "µM"}
    ]},
    {"smiles": "CCC(NC(=O)c1ccc2c(c1)/C(=C/c1[nH]c(C)c(C(=O)N3CCN(C)CC3)c1C)C(=O)N2)c1ccc(Cl)cc1", "note": "(stereo not shown) [Compound 12, (3Z)-N-[1-(4-chlorophenyl)propyl]-3-({3,5-dimethyl-4-[(4-methylpiperazin-1-yl)carbonyl]-1H-pyrrol-2-yl}methylene)-2-oxoindoline-5-carboxamide]", "values": [
      {"measurement": "IC50", "setting": "GRK5", "value": "< 5", "unit": "µM"},
      {"measurement": "IC50", "setting": "full length GRK5", "value": "< 5", "unit": "µM"}
    ]},
    {"smiles": "CCC(NC(=O)c1ccc2c(c1)/C(=C/c1[nH]c(C)c(C(=O)NCCN3CCCC3)c1C)C(=O)N2)c1ccc(Cl)cc1", "note": "(stereo not shown) [Compound 13, (3Z)-N-[1-(4-chlorophenyl)propyl]-3-({3,5-dimethyl-4-[(2-pyrrolidin-1-ylethyl)carbamoyl]-1H-pyrrol-2-yl}methylene)-2-oxoindoline-5-carboxamide]", "values": [
      {"measurement": "IC50", "setting": "full length GRK5", "value": "< 5", "unit": "µM"}
    ]},
    {"smiles": "Cc1[nH]c(/C=C2\\C(=O)Nc3ccc(C(=O)N[C@H](C)c4ccccc4)cc32)c(C)c1C(=O)N1CCCCC1", "note": "[Compound 14, (3Z)-3-{[3,5-dimethyl-4-(piperidin-1-ylcarbonyl)-1H-pyrrol-2-yl]methylene}-2-oxo-N-[(1R)-1-phenylethyl]indoline-5-carboxamide]", "values": [
      {"measurement": "IC50", "setting": "full length GRK5", "value": "< 5", "unit": "µM"}
    ]},
    {"smiles": "Cc1[nH]c(/C=C2\\C(=O)Nc3ccc(C(=O)N[C@H](C)c4ccccc4)cc32)c(C)c1C(=O)N1CCN(C)CC1", "note": "[Compound 15, (3Z)-3-({3,5-dimethyl-4-[(4-methylpiperazin-1-yl)carbonyl]-1H-pyrrol-2-yl}methylene)-2-oxo-N-[(1R)-1-phenylethyl]indoline-5-carboxamide]", "values": [
      {"measurement": "IC50", "setting": "full length GRK5", "value": "< 5", "unit": "µM"}
    ]},
    {"smiles": "Cc1[nH]c(/C=C2\\C(=O)Nc3ccc(C(=O)N[C@H](C)c4ccccc4)cc32)c(C)c1C(=O)N1CCC[C@H]1CN1CCCC1", "note": "[Compound 16, (3Z)-3-[(3,5-dimethyl-4-{[(2S)-2-(pyrrolidin-1-ylmethyl)pyrrolidin-1-yl]carbonyl}-1H-pyrrol-2-yl)methylene]-2-oxo-N-[(1R)-1-phenylethyl]indoline-5-carboxamide]", "values": [
      {"measurement": "IC50", "setting": "GRK5", "value": "< 5", "unit": "µM"}
    ]},
    {"smiles": "COc1ccc([C@@H](C)NC(=O)c2ccc3c(c2)/C(=C/c2[nH]c(C)c(C(=O)N4CCN(C)CC4)c2C)C(=O)N3)cc1", "note": "[Compound 21, (3Z)-3-({3,5-dimethyl-4-[(4-methylpiperazin-1-yl)carbonyl]-1H-pyrrol-2-yl}methylene)-N-[(1R)-1-(4-methoxyphenyl)ethyl]-2-oxoindoline-5-carboxamide]", "values": [
      {"measurement": "IC50", "setting": "full length GRK5", "value": "< 5", "unit": "µM"}
    ]},
    {"smiles": "Cc1[nH]c(/C=C2\\C(=O)Nc3ccc(C(=O)N[C@@H]4CCc5ccccc54)cc32)c(C)c1C(=O)N1CCC[C@@H]1CN1CCCC1", "note": "[Compound 30, (3Z)-N-[(1R)-2,3-dihydro-1H-inden-1-yl]-3-[(3,5-dimethyl-4-{[(2R)-2-(pyrrolidin-1-ylmethyl)pyrrolidin-1-yl]carbonyl}-1H-pyrrol-2-yl)methylene]-2-oxoindoline-5-carboxamide]", "values": [
      {"measurement": "IC50", "setting": "GRK5", "value": "5 to 20", "unit": "µM"},
      {"measurement": "IC50", "setting": "full length GRK5", "value": "5 to 20", "unit": "µM"}
    ]},
    {"smiles": "Cc1ccc([C@@H](C)NC(=O)c2ccc3c(c2)/C(=C/c2[nH]c(C)c(C(=O)N4CCN(C)CC4)c2C)C(=O)N3)cc1", "note": "[Compound 32, (3Z)-3-({3,5-dimethyl-4-[(4-methylpiperazin-1-yl)carbonyl]-1H-pyrrol-2-yl}methylene)-N-[(1R)-1-(4-methylphenyl)ethyl]-2-oxoindoline-5-carboxamide]", "values": [
      {"measurement": "IC50", "setting": "full length GRK5", "value": "< 5", "unit": "µM"}
    ]},
    {"smiles": "Cc1cccc(C(C)NC(=O)c2ccc3c(c2)/C(=C/c2[nH]c(C)c(C(=O)N4CCN(C)CC4)c2C)C(=O)N3)c1", "note": "(stereo not shown) [Compound 51, (3Z)-3-({3,5-dimethyl-4-[(4-methylpiperazin-1-yl)carbonyl]-1H-pyrrol-2-yl}methylene)-N-[1-(3-methylphenyl)ethyl]-2-oxoindoline-5-carboxamide]", "values": [
      {"measurement": "IC50", "setting": "full length GRK5", "value": "5 to 20", "unit": "µM"}
    ]},
    {"smiles": "CC[C@@H](NC(=O)c1ccc2c(c1)/C(=C/c1[nH]c(C)c(C(=O)NCCN(CC)CC)c1C)C(=O)N2)c1ccccc1", "note": "[Compound 61, (3Z)-3-[(4-{[2-(diethylamino)ethyl]carbamoyl}-3,5-dimethyl-1H-pyrrol-2-yl)methylene]-2-oxo-N-[(1R)-1-phenylpropyl]indoline-5-carboxamide]", "values": [
      {"measurement": "IC50", "setting": "full length GRK5", "value": "< 5", "unit": "µM"}
    ]},
    {"smiles": "Cc1[nH]c(/C=C2\\C(=O)Nc3ccc(C(=O)N[C@H](C)c4ccc(Cl)cc4)cc32)c(C)c1C(=O)N1CCCC1", "note": "[Compound 67, (3Z)-N-[(1R)-1-(4-chlorophenyl)ethyl]-3-{[3,5-dimethyl-4-(pyrrolidin-1-ylcarbonyl)-1H-pyrrol-2-yl]methylene}-2-oxoindoline-5-carboxamide]", "values": [
      {"measurement": "IC50", "setting": "full length GRK5", "value": "< 5", "unit": "µM"}
    ]},
    {"smiles": "CC[C@@H](NC(=O)c1ccc2c(c1)/C(=C/Nc1ccc(CN3CCCCC3)cc1)C(=O)N2)c1ccccc1", "note": "[Compound 69, (3Z)-2-oxo-N-[(1R)-1-phenylpropyl]-3-({[4-(piperidin-1-ylmethyl)phenyl]amino}methylene)-indoline-5-carboxamide]", "values": [
      {"measurement": "IC50", "setting": "full length GRK5", "value": "< 5", "unit": "µM"}
    ]},
    {"smiles": "C[C@@H](NC(=O)c1ccc2c(c1)/C(=C/Nc1ccc(CN3CCCCC3)cc1)C(=O)N2)c1ccccc1", "note": "[Compound 78, (3Z)-2-oxo-N-[(1R)-1-phenylethyl]-3-({[4-(piperidin-1-ylmethyl)phenyl]amino}methylene)indoline-5-carboxamide]", "values": [
      {"measurement": "IC50", "setting": "full length GRK5", "value": "< 5", "unit": "µM"}
    ]},
    {"smiles": "COc1cccc([C@@H](C)NC(=O)c2ccc3c(c2)/C(=C/Nc2ccc(CN4CCCCC4)cc2)C(=O)N3)c1", "note": "[Compound 79, (3Z)-N-[(1R)-1-(3-methoxyphenyl)ethyl]-2-oxo-3-({[4-(piperidin-1-ylmethyl)phenyl]amino}methylene)indoline-5-carboxamide]", "values": [
      {"measurement": "IC50", "setting": "full length GRK5", "value": "< 5", "unit": "µM"}
    ]},
    {"smiles": "C[C@@H](NC(=O)c1ccc2c(c1)/C(=C/Nc1ccc(CN3CCCCC3)cc1)C(=O)N2)c1cccc(Cl)c1", "note": "[Compound 80, (3Z)-N-[(1R)-1-(3-chlorophenyl)ethyl]-2-oxo-3-({[4-(piperidin-1-ylmethyl)phenyl]amino}methylene)indoline-5-carboxamide]", "values": [
      {"measurement": "IC50", "setting": "full length GRK5", "value": "< 5", "unit": "µM"}
    ]}
  ]
}
